The target of assay [1] is T1, human GPR75 (372-540 aa region) (Homo sapiens, UniProt O95800).
T1 construct: human GPR75 (372-540 aa region); purchased antibodies-online.com ABIN5709609
The assay can be described thus: Surface Plasmon Resonance (SPR) binding at GPR75. As to conditions: for Bmax ([Signal (RU)]): SPR fit; for Kd / kd / ka (1/(M*s)): SPR; for kon: read-out: ka (1/(M*s)). The protocol:
SU75-36 binding at the human GPR75 (372-540 aa region; available on the world wide web at antibodies-online.com cat #ABIN5709609) was measured via a Nicoya Open SPR instrument using His-tagged GPR75 bound to an NTA-coated gold sensor (Nicoya cat #SEN-AU-100-10-NTA, range=4.08-204 μM) using HBSS (in-house) at 20 μL/min flow rate. Data was fit via a global, one-to-one model using Nicoya OpenSPR software.

Assay [2] in a line: 4th ventricle intracerebroventricular injection, food intake and body weight in DIO rats. Format: in vivo, rat. To be noted: for food intake compared to control: SU75-36 20, 100 or 200 μg, SU75-37 20 μg, 60% HFD, 1, 3, 6, 24 h. The protocol:
Adult male Sprague-Dawley rats (Charles River) were individually housed under a 12 h-light: 12 h-dark cycle in a temperature and humidity-controlled satellite vivarium and had ad libitum access to water and chow (5001, LabDiet) or a 60% high fat diet (HFD): D12492, Research Diets) and when applicable had ad libitum access to kaolin pellets (K50001, Research Diets). Rats were exposed to kaolin for at least 5 days prior to measuring kaolin consumption in pica testing. Except for studies conducted in the bioDAQ, for all feeding studies rats were housed in hanging wire cages to allow for accurate measurement of food spillage. Experiments were conducted under the National Institutes for Health Guide for the Care and Use of Laboratory Animals and all procedures were approved by the Institutional Animal Care and Use Committee at the University of Pennsylvania.
For cannula implantation, rats were anesthetized by intraperitoneal injection of a mixture containing ketamine (90 mg/kg, Butler Animal Health Supply), xylazine (2.7 mg/kg, Anased), and acepromazine (0.64 mg/kg, Butler Animal Health Supply) (KAX) and then placed into a stereotaxic apparatus. Each rat was stereotaxically implanted with a guide cannula (26-ga, Plastics One) aimed at the fourth ventricle (guide cannula coordinates: on midline. 2.5 mm anterior to occipital suture, 5.2 mm ventral to skull; internal cannula aimed 7.2 mm ventral to skull) or the lateral ventricle (guide cannula coordinates: 1.5 mm lateral to midline, 0.9 mm posterior to bregma. 1.8 mm ventral to skull; internal cannula aimed 3.8 mm ventral to skull). For all cannulas, dummies (no projection beyond guide) were inserted in the guide cannula and left until infusions were performed. For all surgeries, rats received post-operative temperature support and analgesia was provided immediately following surgery and for two post-operative days (2 mg/kg meloxicam).
For all studies measuring food intake following drug treatment, central injections were given at a volume of 2 μL using a Hamilton syringe terminating in an injector tip extending 2.0 mm beyond the guide cannula. For acute treatment days, rats were food deprived for 2 hours before the dark cycle and injections were done immediately prior to the dark cycle onset. Food and kaolin intake was measured 1, 3, 6, and 24 hours after injections were completed and food crumbs were weighed and accounted for between each timepoint. Body weight was measured during injections and 24 hours after. Injection treatments were organized in a counterbalanced, within-subjects design and separated by ≥72 h. […]
Rats were weighed at the beginning of the experiment and 24 hours after administration of the GPR75 inhibitor. The weight change of each rat after 24 hours was then calculated. […]

Where [3] appears, read: His-tagged GPR75 on NTA sensor, HBSS, global one-to-one fit.

Several values for one entry are separate records, joined by “and”; a condition that tells them apart may be missing. Equal values may be shown once. Non-standard residues stand in square brackets, D forms with d. No end group written: not given here.

A word on the Kd: it is the free concentration of one partner at which half of the binding sites on the other are occupied at equilibrium, for simple one-to-one binding. Turning to “H[dS]QGTFTSDLSKYLEEEVREFIWLKNGGPSDVNTDRPGLLDLK-NH2 [SU75-36]”, the “Bmax ([Signal (RU)])” value in assay [1] (curves at 10.2-102 μM peptide) worked out at 69.54 RU. Also, the dissociation constant (Kd) in assay [1] (setting [3]) came out at 7.76 µM; in assay [1] (Nicoya OpenSPR software, one-to-one model, global fit), 7.73 µM. Moreover, in assay [1] (one-to-one model, global fit), the “kd” value came out at 0.00742 s⁻¹. Also, in assay [1] (one-to-one model, global fit, listed as Drug 36), the “ka (1/(M*s))” value worked out at 956 M⁻¹ s⁻¹. Also, in assay [1], the kon was determined as 956 M⁻¹ s⁻¹. Besides, the “food intake compared to any of the other groups” value in assay [2] (200 μg, 60% HFD) is reported as “further decrease”. The “food intake compared to control” value in assay [2] is on record as “significant decrease in food intake”. Moreover, the “body weight change after 24 hours” value in assay [2] (any amount (20, 100, 200 μg), 60% HFD) is listed as “significant decrease in weight”.
On to “TFTSDLSKYLEEEVREFIWLKNGGPSDVNTDRPGLLDLK-NH2 [SU75-37]”, for which the “Bmax ([Signal (RU)])” value in assay [1] (curve at 4.9 μM peptide) was 3.80 RU; in assay [1] (curve at 4.93 μM peptide), 3.57 RU; in assay [1] (curve at 12.3 μM peptide, listed as Drug37), 11.98 RU and 9.39 RU; in assay [1] (curve at 24.65 μM peptide) it was 8.98 RU; in assay [1] (curve at 49.3 μM peptide, listed as Drug37), 47.66 RU and 51.69 RU; in assay [1] (curve at 92.4 μM peptide) it was 67.67 RU. For the same substance, the “Bmax ([Signal (RU)])” value in assay [1] (curve at 123.23 μM peptide) came to 110.32 RU. In assay [1] (setting [3]), this substance gave a Kd of 23.8 µM. Moreover, the “ka (1/(M*s))” value in assay [1] (one-to-one model, global fit) came to 592 M⁻¹ s⁻¹. In addition, the “kd” value in assay [1] (one-to-one model, global fit) was 0.0141 s⁻¹. Also, the kon in assay [1] came to 592 M⁻¹ s⁻¹. Further, the “food intake compared to control” value in assay [2] is reported as “significant decrease in food intake”.

The values are drawn from US20260055141A1, “COMPOSITIONS AND METHODS FOR CONTROLLING FOOD INTAKE, ENERGY EXPENDITURE, AND BODY WEIGHT FOR THE TREATMENT OF OBESITY AND METABOLIC DISEASES” (The Trustees of the University of Pennsylvania, priority 2022, published 2026).
